For series [1], the target named is T1, UGT2B15 (Homo sapiens, UniProt P54855).
T1 sequence (P54855 24-530): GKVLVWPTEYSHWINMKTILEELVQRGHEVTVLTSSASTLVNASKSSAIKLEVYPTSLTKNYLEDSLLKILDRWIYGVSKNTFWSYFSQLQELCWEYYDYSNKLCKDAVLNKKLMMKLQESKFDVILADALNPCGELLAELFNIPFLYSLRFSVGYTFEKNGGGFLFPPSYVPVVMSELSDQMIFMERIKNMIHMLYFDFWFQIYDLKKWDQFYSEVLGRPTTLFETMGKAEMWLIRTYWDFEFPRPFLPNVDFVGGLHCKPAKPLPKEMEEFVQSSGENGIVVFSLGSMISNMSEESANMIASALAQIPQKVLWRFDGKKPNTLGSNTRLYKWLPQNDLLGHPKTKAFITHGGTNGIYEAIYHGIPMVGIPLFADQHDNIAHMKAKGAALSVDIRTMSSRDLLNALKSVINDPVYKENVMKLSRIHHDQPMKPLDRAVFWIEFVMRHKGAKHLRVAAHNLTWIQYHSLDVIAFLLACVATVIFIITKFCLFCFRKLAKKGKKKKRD
Kind of series: Screening: inhibition of oxazepam glucuronidation in rUGT2B15 microsomes. Format: in vitro ADME. Particulars: 10 or 100 µM.

For series [2], the target named is T2, UGT1A6 in human kidney microsomes (Homo sapiens, UniProt P19224).
T2 sequence (P19224 27-532): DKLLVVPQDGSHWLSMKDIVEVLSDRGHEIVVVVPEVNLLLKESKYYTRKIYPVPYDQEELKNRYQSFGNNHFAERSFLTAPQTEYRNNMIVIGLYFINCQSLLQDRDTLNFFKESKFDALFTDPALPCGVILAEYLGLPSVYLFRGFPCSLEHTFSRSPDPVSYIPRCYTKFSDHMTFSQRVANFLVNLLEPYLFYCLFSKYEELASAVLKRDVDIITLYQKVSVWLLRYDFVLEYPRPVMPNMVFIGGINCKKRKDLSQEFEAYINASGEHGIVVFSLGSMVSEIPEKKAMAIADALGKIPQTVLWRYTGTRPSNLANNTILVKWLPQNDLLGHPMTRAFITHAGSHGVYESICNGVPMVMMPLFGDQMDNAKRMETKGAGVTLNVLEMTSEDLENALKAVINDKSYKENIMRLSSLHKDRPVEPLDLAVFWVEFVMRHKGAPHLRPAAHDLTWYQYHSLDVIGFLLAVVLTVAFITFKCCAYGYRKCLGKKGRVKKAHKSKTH
Nature of the series: Inhibition of serotonin glucuronidation. The note with it: HKM.

The target of series [3] is T3, UGT1A6 in human liver microsomes (Homo sapiens, UniProt P19224).
T3 sequence (P19224 27-532): T2 sequence (P19224 27-532)
Nature of the series: Inhibition of serotonin glucuronidation. Particulars: HLM.

The conditions of series [4]: 400 mg oral dose; ref Manini et al., 2015; cited from earlier work.
Series [5] can be described thus: Nonspecific binding. Format: in vitro ADME. The note with it: human.
Series [6] can be described thus: Nonspecific binding. Format: in vitro ADME. Particulars: human, incubation mixture with human kidney microsomes.
Series [7] can be described thus: Nonspecific binding. Format: in vitro ADME. Particulars: human, incubation mixture with human liver microsomes. On the technique in general: Liver microsomes are vesicles of endoplasmic reticulum, rich in cytochrome P450 enzymes.
In series [8] the target is T4, UGT2B10 (Homo sapiens, UniProt P36537).
T4 sequence (P36537 24-528): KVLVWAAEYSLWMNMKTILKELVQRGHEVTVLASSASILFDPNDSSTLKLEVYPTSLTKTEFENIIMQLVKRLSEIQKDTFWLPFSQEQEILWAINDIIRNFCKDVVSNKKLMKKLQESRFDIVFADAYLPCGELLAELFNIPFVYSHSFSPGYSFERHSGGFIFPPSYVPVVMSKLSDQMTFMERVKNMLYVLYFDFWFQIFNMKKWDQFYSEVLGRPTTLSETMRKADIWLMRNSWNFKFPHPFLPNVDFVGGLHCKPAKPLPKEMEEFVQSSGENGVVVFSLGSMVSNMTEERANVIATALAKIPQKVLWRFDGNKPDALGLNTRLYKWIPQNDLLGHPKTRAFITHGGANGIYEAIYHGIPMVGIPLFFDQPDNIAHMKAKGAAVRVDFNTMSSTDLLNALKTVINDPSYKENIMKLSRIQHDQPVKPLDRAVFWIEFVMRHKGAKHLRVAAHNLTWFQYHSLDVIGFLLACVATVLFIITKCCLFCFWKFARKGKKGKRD
Nature of the series: Screening: inhibition of nicotine glucuronidation in rUGT2B10 microsomes. Particulars: 100 µM. The series is classed as in vitro ADME.

[9] abbreviates: IC50, probe substrate serotonin.
The mark [10] stands for this setting: IC50,u (binding-corrected IC50), probe substrate serotonin.

As to `C=C(C)[C@@H]1CCC(C)=C[C@H]1c1c(O)cc(CCCCC)cc1O` [CBD, cannabidiol], the “inhibition in screening (in words)” value in series [1] is on record as “no significant inhibition”. The IC50 in series [2] (setting [9]) stood at 17 ± 3.7 µM; in series [2] (setting [10]) it was 1 ± 0.23 µM; in series [3] (setting [9]), 28 ± 6.5 µM; in series [3] (setting [10]), 1.4 ± 0.33 µM. In series [4], the average plasma level is 181 µg/L.
`CCCCCc1cc(O)c2c(c1)OC(C)(C)c1ccc(C)cc1-2` [CBN, cannabinol]: the figures for the fraction unbound in series [5], in series [6] and in series [7] were 0.085 ± 0.005, 0.12 ± 0.015 and 0.092 ± 0.006, respectively. For the same compound, the “inhibition in screening (in words)” value in series [1] is “no significant inhibition”. Besides, the “inhibition vs control without cannabinoid” value in series [8] worked out at 47%.

By IC50 is commonly meant the midpoint of a concentration-inhibition curve. Broadly, the fraction unbound is free concentration divided by total concentration.

The values above are taken from paper PMC11022890 (Drug Metabolism and Disposition, 2021).
